Here are results for one compound from patent US20260070924A1, “INDAZOLE MACROCYCLES AND THEIR USE” (BLOSSOMHILL THERAPEUTICS, INC., priority 2022, published 2026).

The structures appear in SMILES notation.

One test has as its system phospho-STAT5 (Y694). The test can be described thus: Inhibition of kinase phosphorylation by Western Blot in MOLM-13. Type of test: cell-based. As to conditions: MOLM-13 cells, 4 hour-incubation; read-out: pSTAT5 MOLM-13 IC50. How it is done:
(§1) Inhibition of kinase phosphorylation assay was performed by Western Blot using MV-4-11 and MOLM13 cell lines. Cells were plated in 24 well plates at 1 million cells per well and then treated with compounds at different concentrations, starting at 100 nM, 1:4 titration with DMSO as control. After 4 hour-incubation, cells were washed once with ice-cold PBS, and lysed in RIPA lysis buffer with protease and phosphatase inhibitors. The cell lysates were then sonicated and spun down, and 40 μg of proteins were separated by sodium dodecyl sulfate electrophoresis on a 4 to 12% Bis-Tris polyacrylamide gel and transferred onto nitrocellulose membranes using Bio-Rad Trans-Blot Turbo Transfer System (Bio-Rad). Blocking was performed using 3% BSA or 5% Non-fat dry milk (Fisher Scientific) in TBST (Tris-buffered saline containing 0.05% of Tween 20) (Bio-Rad Laboratories, Inc.). The membranes were incubated overnight with anti-phospho-FLT3 (Y589/Y591) (CST #60413), anti-phospho-STAT5 (Y694) (CST #4322), anti-Phospho-p44/42 MAPK (Erk1/2) (T202/Y204) (CST #9101), anti-Phospho-S6 Ribosomal Protein (S235/236) (CST #4858) and anti-β-Actin (CST #8457) each diluted 1000 times in 3% BSA in TBST. Membranes were washed with TBST and then incubated at room temperature for 1 hour with HRP-labeled anti-rabbit IgG polyclonal antibody (CST #7074) diluted 1000 times in 3% BSA. After TBST washing, blots were developed with a chemiluminescence system (SuperSignal West Femto Maximum Sensitivity Substrate, Pierce #34095). Luminescence was detected by LI-COR Odyssey M imaging system and luminescence intensity were quantified using Empiria Studio 2.2 software. Data was analyzed using GraphPad Prism 9 (GraphPad Software, San Diego, CA) to obtain IC50 values.
A general note: In western blotting, separated proteins are transferred to a membrane and probed.

Test [1] relates to Phospho-p44/42 MAPK (Erk1/2) (T202/Y204). The test is described as above. Conditions: MOLM-13 cells, 4 hour-incubation; read-out: pERK MOLM-13 IC50. Type of test: cell-based. How it is done:
as §1

Test [2] deals with Phospho-S6 Ribosomal Protein (S235/236). The description is as above. Conditions: MOLM-13 cells, 4 hour-incubation; read-out: pS6 MOLM-13 IC50. Type of test: cell-based. As to the method: as §1
For a further test, the target named is PIM1 (Homo sapiens (Human), UniProt P11309). The test can be described thus: HotSpot radiometric kinase assay (Reaction Biology). The test is classed as biochemical. As to the method: (§2) Briefly, specific kinase/substrate pairs along with required cofactors were prepared in reaction buffer; 20 mM Hepes pH 7.5, 10 mM MgCl2, 1 mM EGTA, 0.02% Brij35, 0.02 mg/ml BSA, 0.1 mM Na3VO4, 2 mM DTT, 1% DMSO. Compounds were delivered into the reaction, followed ˜20 minutes later by addition of a mixture of ATP (Sigma, St. Louis MO) and ^33P ATP (Perkin Elmer, Waltham MA) to a final concentration of […]. Reactions were carried out at room temperature for 120 min, followed by spotting of the reactions onto P81 ion exchange filter paper (Whatman Inc., Piscataway, NJ). Unbound phosphate was removed by extensive washing of filters in 0.75% phosphoric acid. […] IC50 values and curve fits were obtained using Prism (GraphPad Software).

Another test has as its target PIM2 (Homo sapiens (Human), UniProt Q9P1W9). The test is described as above. Type of test: biochemical. As to the method: as §2
In a further test the target is PIM3 (Homo sapiens (Human), UniProt Q86V86). The description is as above. Type of test: biochemical. How it is done:
as §2

Sequence of PIM2 (Q9P1W9 whole entry): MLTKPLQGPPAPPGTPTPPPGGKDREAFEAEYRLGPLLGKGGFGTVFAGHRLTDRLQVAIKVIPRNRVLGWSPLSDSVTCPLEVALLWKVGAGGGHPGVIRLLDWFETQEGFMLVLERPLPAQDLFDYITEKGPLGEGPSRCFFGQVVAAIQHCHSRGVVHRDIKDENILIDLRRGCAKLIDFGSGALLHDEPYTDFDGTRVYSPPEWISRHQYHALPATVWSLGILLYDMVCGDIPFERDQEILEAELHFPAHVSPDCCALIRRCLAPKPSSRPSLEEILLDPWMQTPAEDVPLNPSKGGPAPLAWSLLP
Sequence of PIM1 (P11309 whole entry): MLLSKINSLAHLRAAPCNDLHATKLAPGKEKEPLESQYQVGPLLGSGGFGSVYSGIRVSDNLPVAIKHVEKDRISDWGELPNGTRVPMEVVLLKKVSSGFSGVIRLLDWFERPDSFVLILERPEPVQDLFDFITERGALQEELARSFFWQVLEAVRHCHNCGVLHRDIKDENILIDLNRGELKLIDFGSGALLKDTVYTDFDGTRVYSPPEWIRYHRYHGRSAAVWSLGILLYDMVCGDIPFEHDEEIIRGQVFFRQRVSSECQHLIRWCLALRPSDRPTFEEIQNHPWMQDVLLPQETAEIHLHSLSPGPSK

What is called IC50 is the concentration that gives 50% inhibition. On to `CCc1nn(C)c2c1/C=C/c1n[nH]c3ccc(cc13)-c1cnn(C)c1OCCN(C)C2=O` [Ex. 6, (17E)-16-ethyl-8,12,14-trimethyl-2,11,12,14-tetrahydro-8H-3,5-ethenotripyrazolo[3,4-f:3′,4′-j:4″,3″-n][1,4]oxazacyclopentadecin-13(10H)-one], for which the IC50 in the test with phospho-STAT5 (Y694) is 0.72 nM; in test [1], 4.11 nM; in test [2] it was 2.47 nM; against PIM1, 2.65 nM; at PIM2 it was 5.68 nM; against PIM3, 0.115 nM.
